Laboratory results from US8759261B2, “Method and composition for enhanced hydrocarbons recovery” (Shell Oil Company, priority 2008, dated 2014).

Assay: Solvent addition to improve aqueous solubility of IOS blend in seawater brine
Assay type: physicochemical
Method: The first attempt to improve the aqueous solubility of these blends was to use small amounts of solvents added to an IOS blend and seawater brine. One percent solvent was added to 3.2% brine solutions (see Table 1 for brine composition) containing a 0.2% blend of 78% IOS 2024 and 22% IOS 2428. This particular surfactant blend had been identified for minimizing the oil-water interfacial tension between the crude oil and brine representative of a North Sea reservoir. Additions of 1% hexylene glycol, 1-hexanol, polyethylene glycol (mw=400) and sodium xylene sulfonate were studied.
A small amount of alcohol ethoxylate (8% relative to the IOS) was added to a second sample of sodium xylene sulfonate.

Substance	solubilizing of the solid in the IOS blend	remaining precipitate after addition of nonionic (second sample with 1% sodium xylene sulfonate plus alcohol ethoxylate (8% relative to the IOS), 3.2% brine, 0.2% IOS blend)
polyethylene glycol (mw=400)	solubilizing most but not all of the solid	–
sodium xylene sulfonate	–	eliminated the rest of the precipitate
